According to ChEMBL document CHEMBL1201862, “PubChem BioAssay data set” (2004):
Calls of active or inactive are those of the source.

Key:
Cytochrome P450 2C9 = Cytochrome P450 2C9 (Homo sapiens, UniProt P11712)
Escherichia coli = assay: microbe, parasite or virus in culture
[1] = Counterscreen for AddAB inhibitors: absorbance-based bacterial cell-based high throughput dose response assay for inhibitors of bacterial viability. [Related pubchem assays (depositor defined):AID435030, AID449728, AID449731, AID488942, AID488955, AID488956]; format: functional
Exodeoxyribonuclease V = target: T1, Exodeoxyribonuclease V (Escherichia coli (strain K12), UniProt P04993+P07648+P08394); assay: RecBCD inhibition via phage-restricted bacterial growth – absorbance, V66 E. coli, mutant T4 phage, counter-screen for AddAB inhibitor project, dose response (AID 492957); format: functional, cell-based, Escherichia coli str. K-12 substr. MG1655
T1 sequence (P04993 whole entry): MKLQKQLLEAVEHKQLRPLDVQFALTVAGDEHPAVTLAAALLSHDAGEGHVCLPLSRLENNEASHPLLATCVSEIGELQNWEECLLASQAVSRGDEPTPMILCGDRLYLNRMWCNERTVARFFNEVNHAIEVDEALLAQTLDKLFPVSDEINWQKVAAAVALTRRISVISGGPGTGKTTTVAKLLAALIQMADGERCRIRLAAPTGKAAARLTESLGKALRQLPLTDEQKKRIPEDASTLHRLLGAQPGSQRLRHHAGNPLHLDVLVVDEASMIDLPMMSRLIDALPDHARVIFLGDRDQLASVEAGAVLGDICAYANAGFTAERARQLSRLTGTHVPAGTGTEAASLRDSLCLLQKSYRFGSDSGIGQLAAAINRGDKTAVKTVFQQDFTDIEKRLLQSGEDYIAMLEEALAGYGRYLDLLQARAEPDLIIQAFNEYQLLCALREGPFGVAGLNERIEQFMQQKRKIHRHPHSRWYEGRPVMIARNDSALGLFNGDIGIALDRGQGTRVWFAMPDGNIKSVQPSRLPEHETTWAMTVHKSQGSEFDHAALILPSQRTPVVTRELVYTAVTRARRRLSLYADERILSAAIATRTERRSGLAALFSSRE
T1 sequence (P07648 whole entry): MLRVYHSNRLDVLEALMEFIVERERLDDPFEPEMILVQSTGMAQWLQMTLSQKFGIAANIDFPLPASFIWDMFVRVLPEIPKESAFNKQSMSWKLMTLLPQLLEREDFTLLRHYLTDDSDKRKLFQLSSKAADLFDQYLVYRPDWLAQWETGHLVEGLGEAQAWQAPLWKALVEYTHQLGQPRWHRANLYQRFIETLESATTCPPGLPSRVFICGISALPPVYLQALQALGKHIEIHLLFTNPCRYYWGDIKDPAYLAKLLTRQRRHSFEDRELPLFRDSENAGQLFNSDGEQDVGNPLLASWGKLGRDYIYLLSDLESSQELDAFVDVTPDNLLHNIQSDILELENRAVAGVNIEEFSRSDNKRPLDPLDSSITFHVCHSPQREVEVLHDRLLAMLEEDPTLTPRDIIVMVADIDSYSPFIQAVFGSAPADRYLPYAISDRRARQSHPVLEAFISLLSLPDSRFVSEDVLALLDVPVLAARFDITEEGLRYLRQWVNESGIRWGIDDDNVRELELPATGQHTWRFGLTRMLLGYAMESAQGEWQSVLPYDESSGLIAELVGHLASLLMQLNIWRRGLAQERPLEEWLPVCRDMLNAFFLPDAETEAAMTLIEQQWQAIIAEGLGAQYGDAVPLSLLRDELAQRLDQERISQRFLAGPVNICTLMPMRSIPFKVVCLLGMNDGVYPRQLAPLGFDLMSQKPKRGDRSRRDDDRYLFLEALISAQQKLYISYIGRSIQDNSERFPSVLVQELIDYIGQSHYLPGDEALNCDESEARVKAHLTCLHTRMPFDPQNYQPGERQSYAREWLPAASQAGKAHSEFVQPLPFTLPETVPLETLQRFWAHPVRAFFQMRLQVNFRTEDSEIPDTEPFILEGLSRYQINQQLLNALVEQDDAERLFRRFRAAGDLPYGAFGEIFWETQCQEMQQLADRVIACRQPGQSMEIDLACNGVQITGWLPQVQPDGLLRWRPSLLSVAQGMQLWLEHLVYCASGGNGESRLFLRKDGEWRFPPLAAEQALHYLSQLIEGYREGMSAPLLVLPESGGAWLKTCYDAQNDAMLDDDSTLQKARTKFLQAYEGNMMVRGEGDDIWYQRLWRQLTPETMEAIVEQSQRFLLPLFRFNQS
T1 sequence (P08394 whole entry): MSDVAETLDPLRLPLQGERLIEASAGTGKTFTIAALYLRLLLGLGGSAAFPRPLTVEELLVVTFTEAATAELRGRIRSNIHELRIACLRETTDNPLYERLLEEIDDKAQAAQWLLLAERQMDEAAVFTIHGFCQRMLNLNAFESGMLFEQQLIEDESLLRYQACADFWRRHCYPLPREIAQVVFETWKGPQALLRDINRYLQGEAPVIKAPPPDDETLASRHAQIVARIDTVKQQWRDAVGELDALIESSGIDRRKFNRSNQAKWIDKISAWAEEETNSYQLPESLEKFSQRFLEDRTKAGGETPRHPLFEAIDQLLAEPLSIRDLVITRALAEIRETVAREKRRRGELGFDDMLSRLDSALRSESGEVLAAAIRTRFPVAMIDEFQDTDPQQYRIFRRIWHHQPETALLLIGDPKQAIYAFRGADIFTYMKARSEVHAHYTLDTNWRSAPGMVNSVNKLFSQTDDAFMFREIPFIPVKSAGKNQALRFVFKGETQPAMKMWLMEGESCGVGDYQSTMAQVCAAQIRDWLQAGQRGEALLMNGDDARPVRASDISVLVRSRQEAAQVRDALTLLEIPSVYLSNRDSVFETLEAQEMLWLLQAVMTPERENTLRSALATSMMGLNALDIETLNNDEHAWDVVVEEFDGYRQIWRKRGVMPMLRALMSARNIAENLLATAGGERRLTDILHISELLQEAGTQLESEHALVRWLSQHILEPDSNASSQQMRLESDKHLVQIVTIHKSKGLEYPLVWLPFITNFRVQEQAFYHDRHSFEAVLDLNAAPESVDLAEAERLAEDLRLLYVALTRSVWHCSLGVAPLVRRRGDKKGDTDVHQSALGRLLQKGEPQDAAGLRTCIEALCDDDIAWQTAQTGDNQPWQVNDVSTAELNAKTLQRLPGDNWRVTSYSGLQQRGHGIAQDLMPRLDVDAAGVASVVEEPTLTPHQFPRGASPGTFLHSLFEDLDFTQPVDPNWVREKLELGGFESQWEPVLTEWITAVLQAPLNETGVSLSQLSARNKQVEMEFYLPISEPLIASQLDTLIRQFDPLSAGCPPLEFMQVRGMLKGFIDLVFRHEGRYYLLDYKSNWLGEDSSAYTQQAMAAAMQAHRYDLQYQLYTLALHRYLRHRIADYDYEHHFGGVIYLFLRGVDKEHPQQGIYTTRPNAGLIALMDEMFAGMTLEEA

Cytochrome P450 2D6 = Cytochrome P450 2D6 (Homo sapiens, UniProt P10635);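 also: CYP2D6 member of a cytochrome P450 panel assay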
Cytochrome P450 2D6, sequence (P10635 whole entry): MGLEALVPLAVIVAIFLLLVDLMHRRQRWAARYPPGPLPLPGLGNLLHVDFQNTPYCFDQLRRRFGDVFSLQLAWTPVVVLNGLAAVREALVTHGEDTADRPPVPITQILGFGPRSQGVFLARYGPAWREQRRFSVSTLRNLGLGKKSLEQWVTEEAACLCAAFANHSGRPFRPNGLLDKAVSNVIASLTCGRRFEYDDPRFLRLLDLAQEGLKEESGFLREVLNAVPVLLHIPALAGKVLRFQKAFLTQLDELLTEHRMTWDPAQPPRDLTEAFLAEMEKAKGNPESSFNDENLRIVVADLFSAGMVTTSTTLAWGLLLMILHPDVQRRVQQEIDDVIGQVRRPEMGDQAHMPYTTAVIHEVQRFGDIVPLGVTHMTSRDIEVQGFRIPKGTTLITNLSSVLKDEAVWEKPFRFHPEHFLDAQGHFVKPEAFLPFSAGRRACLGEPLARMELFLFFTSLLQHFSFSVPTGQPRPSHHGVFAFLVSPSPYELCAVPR

Cytochrome P450 3A4 = Cytochrome P450 3A4 (Homo sapiens, UniProt P08684);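 also: CYP3A4 tested as one member of a cytochrome P450 panel screen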
Cytochrome P450 3A4, sequence (P08684 whole entry): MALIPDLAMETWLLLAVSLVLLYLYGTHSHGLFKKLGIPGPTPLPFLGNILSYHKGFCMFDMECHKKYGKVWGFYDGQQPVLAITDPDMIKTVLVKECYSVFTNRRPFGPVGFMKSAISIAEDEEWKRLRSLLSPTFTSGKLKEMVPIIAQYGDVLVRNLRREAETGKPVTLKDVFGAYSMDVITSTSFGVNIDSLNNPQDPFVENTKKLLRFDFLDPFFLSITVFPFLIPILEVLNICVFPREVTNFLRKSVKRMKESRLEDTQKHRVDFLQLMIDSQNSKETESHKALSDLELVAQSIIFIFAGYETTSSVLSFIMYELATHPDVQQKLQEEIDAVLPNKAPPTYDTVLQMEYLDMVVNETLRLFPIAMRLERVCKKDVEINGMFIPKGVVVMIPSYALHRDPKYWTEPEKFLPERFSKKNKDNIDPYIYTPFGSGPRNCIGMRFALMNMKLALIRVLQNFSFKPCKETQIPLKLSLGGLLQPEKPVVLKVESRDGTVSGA

Vero = assay: cells; format: functional; details: Chlorocebus sabaeus
INS1 = assay: INS-1E survival protection against cytokine death – cell-based, luminescence, retest, dose response (AID 449756); format: functional; details: Rattus norvegicus;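 also: cell death triggered by IL-1 beta plus TNF-alpha plus IFN-gamma mixture; protective hits raise ATP signal compared with cytokine alone wells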
[2] = NIH3T3 cell viability loss – ATP luminescence, mouse fibroblasts, counter-screen, dose response (AID 2010); format: functional, cell-based;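 also: cells exposed to compound for about 90 hours before reading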
[3] = alpha-synuclein stem-loop luciferase translation blockers – H4 neuroglioma cells, luminescence, confirmation (AID 1988); format: functional, cell-based
[4] = NIH-3T3 fibroblast cytotoxicity, dose response, cytotoxicity control, cell-based, fluorescence, Alamar Blue, secondary assay (AID 2327); format: functional;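 also: NIH-3T3 mouse fibroblasts cultured with fluconazole at 8 µg/mL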
cells [5] = format: functional, cell-based
[6] = luciferase reporter signal suppression in cells – H4 neuroglioma cells, luminescence, dose response (AID 1990); format: functional, cell-based
[7] = Trypanosoma cruzi growth suppression in host cells – NIH3T3 host cells, beta-gal luminescence, confirmation (AID 2044); format: functional, cell-based;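 also: intracellular parasites grown in NIH/3T3 mouse fibroblasts as host cells; luminescent beta-galactosidase reporter signal from transgenic T. cruzi replicating inside host cells; inhibitors lower the luminescence signal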
cells [8] = format: functional, cell-based; remark: listed apart in the source
[9] = Luminescence Cell-Based Dose Response HTS to Identify Inhibitors of 5'UTR Stem-Loop Driven Prion Protein mRNA Translation in H4 Neuroglioblastoma Cells. [Related pubchem assays: 1827 (Project Summary), 1813 (Primary HTS)]; format: functional

Cytochrome P450 2C9, sequence (P11712 whole entry): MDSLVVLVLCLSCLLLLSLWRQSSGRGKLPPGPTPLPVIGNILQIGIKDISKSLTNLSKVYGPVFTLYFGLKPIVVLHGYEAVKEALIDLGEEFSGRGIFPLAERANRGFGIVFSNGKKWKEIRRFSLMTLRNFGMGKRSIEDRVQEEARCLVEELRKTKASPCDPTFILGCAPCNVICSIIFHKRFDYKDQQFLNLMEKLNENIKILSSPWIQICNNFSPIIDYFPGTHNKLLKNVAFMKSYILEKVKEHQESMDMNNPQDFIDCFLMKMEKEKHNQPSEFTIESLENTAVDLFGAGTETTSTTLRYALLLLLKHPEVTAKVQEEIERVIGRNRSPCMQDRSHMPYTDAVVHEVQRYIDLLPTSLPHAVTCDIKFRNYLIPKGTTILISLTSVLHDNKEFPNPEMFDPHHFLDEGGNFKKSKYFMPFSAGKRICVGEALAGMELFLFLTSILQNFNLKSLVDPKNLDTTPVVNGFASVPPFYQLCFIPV

Question: With `COc1cccc(-c2nc(N(C)C)c3ccccc3n2)c1` as the compound, how does the AC50 (Cytochrome P450 2C9) read?
Answer: inconclusive

Question: With `COc1ccc(NC(=O)C2CCN(Cc3cnn(-c4ccccc4)c3-n3cccc3)CC2)cc1OC` as the compound, how does the AC50 (Escherichia coli) read?
Answer: > 150 µM (inactive)

Question: For `COc1ccc(NC(=O)Cn2cc(C(=O)c3ccco3)c3ccccc32)cc1`, which IC50 [1] is on record?
Answer: > 119 µM (inactive)

Question: And the IC50 (Exodeoxyribonuclease V)?
Answer: > 119 µM (inactive)

Question: With `CCC(C)n1nccc1NC(=O)C(C)Cl` (stereo not given) as the compound, how does the AC50 (Escherichia coli) read?
Answer: 31.4 µM (active)

Question: With `Cc1cc(C(=O)N2CCN(c3ccccc3)CC2)no1` as the compound, how does the AC50 (Escherichia coli) read?
Answer: 28.2 µM (active)

Question: Which AC50 (Cytochrome P450 2C9) does the source give for `CN1CCCC2(CCN(C(=O)c3ccncc3)CC2)C1` here?
Answer: inconclusive

Question: What about the AC50 (Cytochrome P450 2D6) of the same compound?
Answer: 7.94 µM (inconclusive)

Question: Which AC50 (Escherichia coli) does the source give for `CCn1cc(C(=O)NCCCO)c(=O)c2cc(F)c(N3CCN(C)CC3)cc21` here?
Answer: 2.5 µM (active)

Question: Which AC50 (Cytochrome P450 2C9) does the source give for `Cc1ccnc(NS(=O)(=O)c2ccc(N)cc2)n1` [SULFAMERAZINE] here?
Answer: inconclusive

Question: With `CN(C)C(=O)N1CCCC(C(=O)NCCc2ccccc2)C1` (stereo not given) as the compound, how does the AC50 (Cytochrome P450 2C9) read?
Answer: inconclusive

Question: What about the AC50 (Cytochrome P450 2D6) of the same compound?
Answer: 10 µM (inconclusive)

Question: What about the AC50 (Cytochrome P450 3A4) of the same compound?
Answer: 39.8 µM (inconclusive)

Question: With `COc1ccc(Nc2nc(-c3ccccc3)nc3ccccc23)cc1S(=O)(=O)N1CCOCC1` as the compound, how does the CC50 (Vero) read?
Answer: > 25 µM (active)

Question: What does the source list for `COc1cccc(/C=N\NC(=O)c2ccc(Cn3cc(Br)c([N+](=O)[O-])n3)o2)c1O`?
Answer: IC50 [1]: 31.8 µM (inactive); AC50 (INS1): 1.89 µM (active); IC50 (Exodeoxyribonuclease V): > 119 µM (inactive); EC50 [2]: > 60 µM (not active); EC50 [3]: 10.4 µM (active); EC50 [4]: > 150 µM (inactive); EC50 (cells [5]): 28.6 µM (active); EC50 [6]: 26 µM (active); EC50 [7]: 1.09 µM (active); EC50 (cells [8]): 51.1 µM (active); EC50 [9]: 20.2 µM (active)
